# Assays:
# [1] = system: Mycobacterium tuberculosis; assay: Antimycobacterial activity against isoniazid-resistant Mycobacterium tuberculosis H37Rv ATCC 27294 at 3.125 ug/ml; format: functional
# [2] = system: Mycobacterium tuberculosis; assay: Antimycobacterial activity against isoniazid-resistant Mycobacterium tuberculosis H37Rv ATCC 27294 at 1 ug/ml; format: functional
smiles,measurement,setting,value
N=C(N)NCCC[C@H](NC(=O)c1cc(C23CC4CC(CC(C4)C2)C3)c2ccccc2n1)C(=O)NN,inhibition at 3.125 µg/mL,[1],99%
same,inhibition at 1 µg/mL,[2],60%

# Source: ChEMBL document CHEMBL1158356, “Synthesis, anti-tuberculosis activity and 3D-QSAR study of amino acid conjugates of 4-(adamantan-1-yl) group containing quinolines” (Eur J Med Chem, 2009)
